Where two headings read alike, the source gives them in different places.
Experiments:
[1] = tested on: Vaccinia virus; test: microbe, parasite or virus in culture; type: cell-based; conditions: Orthopoxvirus vaccinia, HEL
[2] = tested on: HEL cell cultures; conditions: for MCC (minimum cytotoxic concentration): human
[3] = tested on: HSV-1 TK^− KOS ACV^r; test: microbe, parasite or virus in culture; type: cell-based, herpes simplex virus-1; conditions: Human alphaherpesvirus 1, HEL
[4] = tested on: HSV-2 (G); test: microbe, parasite or virus in culture; type: cell-based, herpes simplex virus type 2; conditions: Human alphaherpesvirus 2, HEL
[5] = tested on: Vesicular stomatitis virus; test: microbe, parasite or virus in culture; type: cell-based; conditions: HEL, read-out: EC50 Vesicular stomatitis virus
[6] = tested on: HSV-1 (KOS); test: microbe, parasite or virus in culture; type: cell-based, herpes simplex virus type 1; conditions: Human alphaherpesvirus 1, HEL
[7] = tested on: Feline Herpes Virus; test: organism not typed; type: cell-based; conditions: CRFK, read-out: EC50 Feline Herpes Virus
[8] = in vitro; conditions: cat
[9] = tested on: Feline Corona Virus (FIPV); test: microbe, parasite or virus in culture; type: cell-based; conditions: Alphacoronavirus 1, CRFK, read-out: EC50 Feline Corona Virus (FIPV)
[10] = read-out: EC50 HSV-1 TK^− KOS ACV^r
[11] = read-out: inhibitory activity against HSV-1 TK^− KOS (ACV^r), one range given for several viruses
[12] = read-out: inhibitory activity against HSV-2 (G), one range given for several viruses
[13] = read-out: inhibitory activity against HSV-1 (KOS), one range given for several viruses

Structure (SMILES)	EC50 ([1]; read-out: EC50 Vaccinia virus) [µM]	MCC (minimum cytotoxic concentration) [2] [µM]	EC50 [3, 10] [µM]	EC50 ([4]; read-out: EC50 HSV-2 (G)) [µM]	EC50 [5] [µM]	EC50 ([6]; read-out: EC50 HSV-1 (KOS)) [µM]	EC50 [7] [µM]	CC50 [8] [µM]	EC50 [9] [µM]	EC50 ([1]; read-out: inhibitory activity against vaccinia virus, one range given for several viruses) [µM]	melting point [°C]	EC50 [3, 11] [µM]	EC50 [4, 12] [µM]	EC50 [6, 13] [µM]	cytostatic activity at 100 µM ([2]; 100 µM)
Nc1ccn(C[C@@H](CO)OCP(=O)(O)O)c(=O)n1 [Cidofovir, (S)-1-[3-hydroxy-2-(phosphonyl-methoxy)propyl]cytosine, reference compound]	7.9	>250	1.5	1.5	> 250	0.9	–	–	–	–	–	–	–	–	–
COc1ccccc1C(c1c(O)c2ccccc2oc1=O)c1c(O)c2ccccc2oc1=O [Compound 5, 3,3′-(2-Methoxybenzylidene)bis[4-hydroxycoumarin]]	–	–	–	–	–	–	5	36	7.5	–	–	–	–	–	–
O=c1oc2ccccc2c(O)c1C(c1cccc(Br)c1)c1c(O)c2ccccc2oc1=O [Compound 3, 3,3′-(3-Bromobenzylidene)-bis-[4-hydroxycoumarin]]	11	–	9	9	> 20	9	–	–	–	9 to 12	287	9 to 12	9 to 12	9 to 12	–
O=c1oc2ccccc2c(O)c1C(c1ccc(F)cc1)c1c(O)c2ccccc2oc1=O [Compound 6, 3,3′-(4-Fluorobenzylidene)-bis-[4-hydroxycoumarin]]	–	–	–	–	–	–	8.1	39	7.7	–	214.5	–	–	–	–
O=c1oc2ccccc2c(O)c1C(c1ccc([N+](=O)[O-])cc1)c1c(O)c2ccccc2oc1=O [Compound 8, 3,3′-(4-Nitrobenzylidene)-bis-[4-hydroxycoumarin]]	> 20	100	> 20	> 20	> 20	> 20	6.9	41	8.5	–	–	–	–	–	–
O=c1oc2ccccc2c(O)c1C(c1ccccc1[N+](=O)[O-])c1c(O)c2ccccc2oc1=O [Compound 9, 3,3’-(2-Nitrobenzylidene)-bis-[4-hydroxycoumarin]]	–	–	–	–	–	–	14	34	8.3	–	202	–	–	–	–
O=c1oc2ccccc2c(O)c1C(c1ccc(Br)cc1)c1c(O)c2ccccc2oc1=O	–	–	–	–	–	–	–	–	–	–	267.2	–	–	–	–
O=c1oc2ccccc2c(O)c1C(c1ccc(O)c(O)c1)c1c(O)c2ccccc2oc1=O [Compound 13, 3,3′-(3,4-Dihydroxybenzylidene)-bis-[4-hydroxycoumarin]]	> 20	100	> 20	> 20	> 20	> 20	–	–	–	–	227.5	–	–	–	–
Nc1nc2c(ncn2COCCO)c(=O)[nH]1 [Acyclovir, reference compound]	> 250	>250	20	0.35	> 250	0.3	–	–	–	–	–	–	–	–	–
COc1cc(C(c2c(O)c3ccccc3oc2=O)c2c(O)c3ccccc3oc2=O)cc([N+](=O)[O-])c1O [Compound 15, 3,3′-(4-Hydroxy-3-methoxy-5-nitrobenzylidene)-bis-[4-hydroxycoumarin]]	> 100	>100	> 100	> 100	> 100	> 100	–	–	–	–	199.6	–	–	–	–
COc1ccc(OC)c(C(c2c(O)c3ccccc3oc2=O)c2c(O)c3ccccc3oc2=O)c1 [Compound 14, 3,3′-(2,5-Dimethoxybenzylidene)-bis-[4-hydroxycoumarin]]	> 100	>100	> 100	> 100	> 100	> 100	–	–	–	–	181.6	–	–	–	–
CSc1ccc(C(c2c(O)c3ccccc3oc2=O)c2c(O)c3ccccc3oc2=O)cc1 [Compound 11, 3,3′-(4-Methyltiobenzylidene)-bis-[4-hydroxycoumarin]]	> 20	100	> 20	> 20	> 20	> 20	–	–	–	–	258.7	–	–	–	–
O=c1oc2ccccc2c(O)c1C(c1ccccc1)c1c(O)c2ccccc2oc1=O [Compound 1, 3,3′-(Benzilidene)-bis-[4-hydroxycoumarin]]	–	–	–	–	–	–	9.1	43	7.5	–	–	–	–	–	–
O=c1oc2ccccc2c(O)c1C(c1ccc(Cl)cc1)c1c(O)c2ccccc2oc1=O [Compound 4, 3,3’-(4-Chlorobenzylidene)-bis-[4-hydroxycoumarin]]	–	–	–	–	–	–	7.6	45	9.1	–	–	–	–	–	–
COc1cc(OC)c2c(c1)Oc1c(c(=O)oc3ccccc13)C2c1c(O)c2ccccc2oc1=O (stereo not drawn) [Compound 20, 3-[6-oxo-(1H)-15,17-dimethoxybenzopyrano[4,3-b]benzopyran-7-yl]-4-hydroxycoumarin]	> 20	100	> 20	> 20	> 20	> 20	7.1	27	6.4	–	287.9	–	–	–	–
O=c1[nH]c(=O)n([C@H]2C[C@H](O)[C@@H](CO)O2)cc1/C=C/Br [Brivudin, (E)-5-(2-bromovinyl)-2’-deoxyuridine, reference compound]	3.2	>250	50	182	> 250	0.06	–	–	–	–	–	–	–	–	–
O=c1oc2ccccc2c(O)c1C1c2cc([N+](=O)[O-])ccc2Oc2c1c(=O)oc1ccccc21 (stereo not drawn) [Compound 19, 3-[6-Oxo-(1H)-18-nitrobenzopyrano[4,3-b]benzopyran-7-yl]-4-hydroxycoumarin]	> 100	>100	50	45	> 100	50	–	–	–	–	315.7	45 to 50	45 to 50	45 to 50	no cytotostatic activity
Nc1nc(O)c2ncn(COC(CO)CO)c2n1 [Ganciclovir, 9-[(1,3-dihydroxy-2-propoxy)methyl]guanine, reference compound]	> 100	>100	0.1	0.03	> 100	0.025	4.9	> 100	> 100	–	–	–	–	–	–
O=c1oc2ccccc2c(O)c1C(c1ccc(C(F)(F)F)cc1)c1c(O)c2ccccc2oc1=O [Compound 7, 3,3′-(4-Trifluoromethylbenzylidene)-bis-[4-hydroxycoumarin]]	> 4	20	> 4	> 4	> 4	> 4	–	–	–	–	271.3	–	–	–	–
